# Measurements as given in patent publication US20060147456A1, “Induction of apoptosis in toll-like receptor expressing tumor cells” (priority 2004, published 2006).
# Assays:
# Format in all cases: cell-based, human
# TLR3 mRNA = TLR3 mRNA expression by RT-PCR in Cama-1 cells; conditions: 48 h
# Method: Cama-1 cells were analyzed for TLR3 mRNA expression in response to Poly IC. Cama-1 cells were cultured in complete medium (DMEM F12 containing […] glucose and complemented with 2 mM L-glutamine, 10% fetal calf serum, 160 μg/mL gentalline, 2.5 mg/mL sodium bicarbonate) for 48 hours either alone or with LPS (5 μg/ml) and/or with Poly IC (5 μg/ml). The mRNA from each group of cells was extracted. The mRNA was then reverse-transcribed and PCR amplified for 35 cycles (as above in Example 1) with hTLR3 specific primers: TLR3F: […] (SEQ ID NO: 5) and TLR3R: […] (SEQ ID NO: 6). TLR3 mRNA could not be amplified from resting Cama-1 cells.
# Amplified DNA from RT-PCR using hTLR3 specific primers was run on a gel.
# Cama-1 cells = assay: BrdU incorporation and subdiploid DNA content by FACS
# Method: Cell recovery after treatment with TLR ligands was measured by crystal violet staining (Sigma-Aldrich). Cells were plated at 10^4 cells/well in 96 well plates. After 72 hours of culture either with or without TLR ligand, the cells were washed with PBS, fixed in 6% formaldehyde (Sigma-Aldrich) for 20 minutes, washed twice, and then stained with 0.1% crystal violet for 10 minutes. After washes and incubation in 1% SDS for 1 hour, the absorbance was read at 605 nm on a Vmax plate reader (Molecular Devices, Sunnyvale, Calif.). Annexin V staining was performed with an annexin-FITC apoptosis detection kit (BD Pharmingen, San Diego, Calif.) according to the manufacturer's instructions. Sub-diploid cells were detected by staining with 3 μg/mL propidium iodide (PI) (Molecular probes, Eugene, Oreg.), after overnight permeabilization in 70% ethanol. Fluorescence was analyzed by flow cytometry on a FACScalibur (Becton Dickinson, Mountain View, Calif.) equipped with a doublet-discrimination module and using Celiquest Pro software (Becton Dickinson).
# Two cell lines, the colon cancer cell line LS174T and the breast cancer cell line Cama-1, were analyzed for death and cell cycle changes. Cells were cultured for 48 hours in either the presence or absence of Poly IC (5 μg/ml). Following a 30-minute pulse with 1 μg/ml bromodeoxyuridine (BrdU), the cells were fixed overnight at 4° C. in 70% ethanol before staining with FITC-coupled anti-BrdU monoclonal antibody and 3 μg/ml propidium iodide. Cell death and the cell cycle were analyzed by flow cytometry (FACS). BrdU incorporation is a measure of proliferation, whereas propidium iodide staining allows the quantification of DNA content, in particular the subdiploid cell population undergoing apoptosis.
# TLR3 was analyzed for its role in Poly IC induced apoptosis. Cama-1 cells were transfected with siRNA corresponding to either: an irrelevant sequence (Scr RNA; sequence: ACUAGUUCACGAGUCACCUtt) (SEQ ID NO: 21), or hTLR3 (sequence: CAGUGUUGAACCUUACCCAtt) (SEQ ID NO: 22). siRNA transfections were performed for 5 hours in 1 mL OptiMEM™ medium containing 3 μg/mL lipofectamine 2000 and 100 nM siRNA. Cells were then washed in phosphate buffered saline solution (PBS) and cultured for 72 hours in complete medium before subsequent 48 hour treatment with 5 μg/mL Poly IC. The cell cycle was then analyzed by FACS after staining with ethidium bromide, as described in Example 3.
# IL-6 = IL-6 secretion by ELISA in siRNA transfected Cama-1 cells; conditions: 24 h with 5 μg/ml Poly IC, untreated 10
# Method: IL-6 secretion was measured in culture supernatants by standard Enzyme-Linked Assay (ELISA) using a DuoSet ELISA kit according to manufacturer's instructions (R&D Systems).
# In parallel, IL-6 concentration in the supernatants of siRNA transfected Cama-1 cells cultured for 24 hours either with or without 5 μg/ml of Poly IC was determined by ELISA. […] In the siRNA IRAK-4 group, untreated and treated cells had IL-6 concentrations (pg/ml/10^6 cells) of 10 and 40, respectively. In the siRNA TRAF6 group, untreated and treated cells had IL-6 concentrations (pg/ml/10^6 cells) of 10 and 20, respectively.
substance,measurement,setting,value
polyinosinic-polycytidylic acid [Poly IC],TLR3 mRNA expression,"TLR3 mRNA; 5 μg/ml, agent alone",induced
same,TLR3 expression on gel,TLR3 mRNA; both Poly IC (5 μg/ml) and LPS (5 μg/ml),showed TLR3 expression
same,percentage of cells with subdiploid DNA content,"Cama-1 cells; Cama-1, 48 h with 5 μg/ml Poly IC (4% before treatment)",17%
same,percentage of cells that incorporated BrdU,"Cama-1 cells; Cama-1, 48 h with 5 μg/ml Poly IC (15% before treatment)",2%
same,percentage of subdiploid cells,"Cama-1 cells; Cama-1 transfected with hTLR3 siRNA, 48 h with 5 μg/mL Poly IC",3%
same,percentage of subdiploid cells,"Cama-1 cells; Cama-1 transfected with scrambled RNA, 48 h with 5 μg/mL Poly IC (from 2%)",45%
same,IL-6 concentration in supernatant,IL-6; scr group,110 pg/ml/10^6 cells
same,IL-6 concentration in supernatant,IL-6; siRNA IRAK-4 group,40 pg/ml/10^6 cells
same,IL-6 concentration in supernatant,IL-6; siRNA TRAF6 group,20 pg/ml/10^6 cells
